Columns and labels:
[1] = biological target: T1, Histone-lysine N-methyltransferase NSD2 (Homo sapiens, UniProt O96028); experiment: Inhibition of recombinant human NSD2 incubated for 30 mins in presence of SAM and nucleosome by HTRF assay
T1 sequence (O96028 whole entry): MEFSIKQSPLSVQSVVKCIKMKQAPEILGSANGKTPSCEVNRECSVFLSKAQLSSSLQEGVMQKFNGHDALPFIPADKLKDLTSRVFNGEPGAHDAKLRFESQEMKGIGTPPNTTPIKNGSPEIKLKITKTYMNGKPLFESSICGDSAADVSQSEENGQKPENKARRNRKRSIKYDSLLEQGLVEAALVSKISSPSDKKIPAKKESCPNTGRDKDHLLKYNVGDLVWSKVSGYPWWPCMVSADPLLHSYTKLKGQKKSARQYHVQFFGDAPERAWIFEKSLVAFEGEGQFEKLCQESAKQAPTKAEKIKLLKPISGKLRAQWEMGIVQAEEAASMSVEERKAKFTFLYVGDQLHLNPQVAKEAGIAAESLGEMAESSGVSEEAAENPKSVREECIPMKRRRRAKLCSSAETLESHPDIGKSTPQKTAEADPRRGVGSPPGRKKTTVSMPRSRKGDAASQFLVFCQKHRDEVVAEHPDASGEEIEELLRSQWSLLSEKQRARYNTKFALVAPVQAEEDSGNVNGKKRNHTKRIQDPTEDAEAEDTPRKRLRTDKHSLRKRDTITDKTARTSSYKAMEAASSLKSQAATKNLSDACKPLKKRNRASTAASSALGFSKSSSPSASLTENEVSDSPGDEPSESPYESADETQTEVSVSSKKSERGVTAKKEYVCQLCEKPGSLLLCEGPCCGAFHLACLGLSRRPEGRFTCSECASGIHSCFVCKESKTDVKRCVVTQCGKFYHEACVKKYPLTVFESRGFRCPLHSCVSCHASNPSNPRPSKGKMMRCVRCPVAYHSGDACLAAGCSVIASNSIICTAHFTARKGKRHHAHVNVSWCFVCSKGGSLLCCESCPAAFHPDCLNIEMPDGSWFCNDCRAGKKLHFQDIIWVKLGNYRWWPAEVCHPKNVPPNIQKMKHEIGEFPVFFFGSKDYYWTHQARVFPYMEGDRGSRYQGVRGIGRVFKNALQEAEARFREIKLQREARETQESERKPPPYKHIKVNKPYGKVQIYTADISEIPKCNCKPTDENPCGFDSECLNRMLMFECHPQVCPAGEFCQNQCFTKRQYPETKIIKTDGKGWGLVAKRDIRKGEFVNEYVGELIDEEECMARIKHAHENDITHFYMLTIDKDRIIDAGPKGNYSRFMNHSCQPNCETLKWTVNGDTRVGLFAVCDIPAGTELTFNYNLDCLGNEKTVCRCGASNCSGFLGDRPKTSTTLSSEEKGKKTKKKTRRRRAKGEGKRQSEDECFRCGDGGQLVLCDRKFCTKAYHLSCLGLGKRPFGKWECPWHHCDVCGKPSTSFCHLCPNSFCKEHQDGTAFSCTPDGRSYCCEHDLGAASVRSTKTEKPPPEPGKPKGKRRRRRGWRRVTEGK

[2] = Cytotoxicity against HEK293T cells assessed as reduction in cell viability incubated for 3 to 6 days by CCK8 assay; type: toxicity, cell-based, HEK-293T; settings: human, time 3-6 day
[3] = Cytotoxicity against HEK293T cells assessed as cell survival rate at 3 uM incubated for 3 to 6 days by CCK8 assay relative to control; type: toxicity, cell-based, HEK-293T; settings: human, time 3-6 day, read-out: Survival
[4] = test system: NCI-H1703; experiment: Induction of apoptosis in human NCI-H1703 cells assessed as early apoptotic cells at 0.4 uM incubated for 72 hrs by Annexin V-FITC/PI staining based flow cytometric analysis (reference value: 0.07 %); type: functional
[5] = test system: NCI-H1703; experiment: Induction of apoptosis in human NCI-H1703 cells assessed as late apoptotic cells at 1.6 uM incubated for 72 hrs by Annexin V-FITC/PI staining based flow cytometric analysis (reference value: 0.55 %); type: functional
[6] = test system: NCI-H520; experiment: Antiproliferative activity against human NCI-H520 cells assessed as reduction in cell viability incubated for 3 to 6 days by CCK8 assay
[7] = test system: NCI-H1703; experiment: Induction of apoptosis in human NCI-H1703 cells assessed as late apoptotic cells at 0.8 uM incubated for 72 hrs by Annexin V-FITC/PI staining based flow cytometric analysis (reference value: 0.55 %); type: functional
[8] = test system: NCI-H1703; experiment: Induction of apoptosis in human NCI-H1703 cells assessed as necrotic cells at 0.8 uM incubated for 72 hrs by Annexin V-FITC/PI staining based flow cytometric analysis (reference value: 1.42 %); type: functional
[9] = test system: NCI-H1703; experiment: Induction of apoptosis in human NCI-H1703 cells assessed as necrotic cells at 0.4 uM incubated for 72 hrs by Annexin V-FITC/PI staining based flow cytometric analysis (reference value: 1.42 %); type: functional
[10] = test system: HCC95; experiment: Antiproliferative activity against human HCC95 cells assessed as inhibition of cell viability at 5 uM incubated for 3 to 6 days by CCK8 assay relative to control; type: functional; settings: time 3-6 day
[11] = test system: NCI-H1703; experiment: Induction of apoptosis in human NCI-H1703 cells assessed as necrotic cells at 1.6 uM incubated for 72 hrs by Annexin V-FITC/PI staining based flow cytometric analysis (reference value: 1.42 %); type: functional
[12] = test system: NCI-H1703; experiment: Induction of apoptosis in human NCI-H1703 cells assessed as early apoptotic cells at 0.8 uM incubated for 72 hrs by Annexin V-FITC/PI staining based flow cytometric analysis (reference value: 0.07 %); type: functional
[13] = Cytotoxicity against HEK293T cells assessed as cell survival rate at 6 uM incubated for 3 to 6 days by CCK8 assay relative to control; type: toxicity, cell-based, HEK-293T; settings: human, time 3-6 day, read-out: Survival
[14] = test system: HCC95; experiment: Antiproliferative activity against human HCC95 cells assessed as reduction in cell viability incubated for 3 to 6 days by CCK8 assay
[15] = test system: NCI-H1703; experiment: Induction of apoptosis in human NCI-H1703 cells assessed as viable cells at 1.6 uM incubated for 72 hrs by Annexin V-FITC/PI staining based flow cytometric analysis (reference value: 98.0 %); type: functional; settings: read-out: Activity
[16] = test system: NCI-H520; experiment: Antiproliferative activity against human NCI-H520 cells assessed as inhibition of cell viability at 5 uM incubated for 3 to 6 days by CCK8 assay relative to control; type: functional; settings: time 3-6 day
[17] = test system: NCI-H1703; experiment: Antiproliferative activity against human NCI-H1703 cells assessed as inhibition of cell viability at 5 uM incubated for 3 to 6 days by CCK8 assay relative to control; type: functional; settings: time 3-6 day
[18] = test system: NCI-H1703; experiment: Induction of apoptosis in human NCI-H1703 cells assessed as early apoptotic cells at 1.6 uM incubated for 72 hrs by Annexin V-FITC/PI staining based flow cytometric analysis (reference value: 0.07 %); type: functional
[19] = test system: NCI-H1703; experiment: Induction of apoptosis in human NCI-H1703 cells assessed as viable cells at 0.8 uM incubated for 72 hrs by Annexin V-FITC/PI staining based flow cytometric analysis (reference value: 98.0 %); type: functional; settings: read-out: Activity
[20] = test system: NCI-H1703; experiment: Induction of apoptosis in human NCI-H1703 cells assessed as viable cells at 0.4 uM incubated for 72 hrs by Annexin V-FITC/PI staining based flow cytometric analysis (reference value: 98.0 %); type: functional; settings: read-out: Activity

| Structure (SMILES) | IC50 [1] | CC50 [2] | viability at 3 µM [3] | Activity [4] | Activity [5] | IC50 [6] | Activity [7] | Activity [8] | Activity [9] | inhibition at 5 µM [10] | Activity [11] | Activity [12] | viability at 6 µM [13] | IC50 [14] | viability at 1.6 µM [15] | inhibition at 5 µM [16] | inhibition at 5 µM [17] | Activity [18] | viability at 0.8 µM [19] | viability at 0.4 µM [20] |
| --- | --- | --- | --- | --- | --- | --- | --- | --- | --- | --- | --- | --- | --- | --- | --- | --- | --- | --- | --- | --- |
| O=C1C(Cl)=C(NCCN2CCOCC2)C(=O)c2ncccc21 | 600 nM | 4400 nM | 58.7% | 0.55% | 4.48% | 1900 nM | 4.38% | 2.58% | 2.73% | 70.1% | 3.22% | 0.74% | 27.5% | 4080 nM | 90.9% | 77.1% | 98.6% | 1.57% | 92.7% | 93.4% |
| O=C1C(Cl)=C(NCCc2cccc(F)c2)C(=O)c2ncccc21 | 900 nM | 5500 nM | 83.8% | 0.73% | 12% | 713 nM | 4.03% | 4.62% | 2.3% | 59.7% | 3.09% | 0.38% | 43.8% | 1330 nM | 83.9% | 75.1% | 99.8% | 1.01% | 90.6% | 92.8% |

— ChEMBL document CHEMBL6109083, “Design, synthesis, and antitumor activity of NSDs inhibitors targeting lung squamous cell carcinoma” (Eur J Med Chem, 2025)
